Where “and” joins values, the source holds several entries; their conditions need not be identical. Equal values may be shown once. Marks after values point to notes of the source that are not given here.
Key:
[1] = target: A-domain of BT NRPS Module 7 (Bt7A) (Brevibacillus texasporus, UniProt Q2VQ15); test: ATP-PPi exchange assay, Module 7 A-domain; assay type: biochemical; details: 0.5 mM amino acid
[2] = target: A-domain of BT NRPS Module 8 (Bt8A) (Brevibacillus texasporus, UniProt Q2VQ14); test: ATP-PPi exchange assay, Module 8 A-domain; assay type: biochemical; details: for relative activation (highest activity = 100%): 0.5 mM amino acid
Experimental: (§1) Cloning, overexpression, and purification of His10-tagged BT A-domain proteins. DNA fragments encoding the A-domains of the BT NRPS Modules 8, 5, 7, 4 and 2 (Bt8A, 8t5A, Bt7A, Bt4A and Bt2A) were PCR-amplified and the PCR products were inserted into the His10-tag recombinant protein expression vector pET16b (Novagen). The A-domain borders were determined as defined by (Konz, et al., 1999). The expression constructs were transformed into the E. coli BL21-AI strain (Invitrogen). Transformants were grown in L-broth at 37° C. to an A600 of 0.6 and then induced with 1 mM IPTG (isopropyl-β-D-thiogalactopyranoside) plus 0.2% L-arabinose. The cells were allowed to grow for two additional hours at 30° C. before being harvested. Purification of the His10-tag recombinant proteins was achieved using the TALON metal affinity resins (BD Biosciences) under conditions recommended in the manual with modifications. Briefly, the E. coli cells were broken by sonication. Cell lysates were cleared by centrifugation at 25,000×g for one hour. His-tagged recombinant proteins were then incubated with the TALON resin, washed, and eluted with 500 mM imidazole. Eluted proteins were dialyzed against a buffer (50 mM HEPES, pH 8.0, 100 mM sodium chloride, 10 mM magnesium chloride, and 1 mM EDTA) and then analyzed with SDS PAGE plus Coomassie Blue staining. […] Concentrations of the purified proteins were determined by using the calculated molar extinction coefficient for the A280.
(§2) ATP-PPi exchange assay. ATP-PPi exchange assays were performed to determine the substrate specificity of an A-domain. ATP-PPi exchanges were assayed as previously described (Stachelhaus, et al., 1998) with minor modifications. The assay mixture contained 50 mM HEPES (pH 8.0), 100 mM NaCl, 10 mM MgCl2, 2 mM ATP, 0.5 mM amino acid, 0.05 mM PPi, 0.15 μCi tetrasodium [^32P]pyrophosphate. Exchange was initiated by addition of purified recombinant A-domain proteins to a total volume of 0.1 ml. The protein concentrations were 0.2 μM for Module 4 and Module 5 A-domains while 2 μM for Module 7 and Module 8 A-domains. […] The charcoal/water suspension was added to a scintillation vial containing 5.0 ml of scintillation fluid, and the bound radioactivity was determined by liquid scintillation counting. […]
(§3) Since a purified recombinant A-domain of an NRPS module can selectively and efficiently activate the cognate amino acid substrate of the NRPS module in an ATP-PPi exchange assay (Konz, et al., 1999; Mootz & Marahiel, 1997), ATP-PPi exchange assays have been used to experimentally establish NRPS module specificities and novel NRPS codons. […] A-domain specificities were determined in ATP-PPi exchange and aa Km assays (see Methods and Materials), and the results are shown in FIG. 5. […]

[3] = target: A-domain of BT NRPS Module 5 (Brevibacillus texasporus, UniProt Q2VQ15); test: ATP-PPi exchange assay, Module 5 A-domain; assay type: biochemical; details: for relative activation (highest activity = 100%): 0.5 mM amino acid; for Km: read-out: apparent Km
Experimental: as §1
(§4) ATP-PPi exchange assay. ATP-PPi exchange assays were performed to determine the substrate specificity of an A-domain. ATP-PPi exchanges were assayed as previously described (Stachelhaus, et al., 1998) with minor modifications. The assay mixture contained 50 mM HEPES (pH 8.0), 100 mM NaCl, 10 mM MgCl2, 2 mM ATP, 0.5 mM amino acid, 0.05 mM PPi, 0.15 μCi tetrasodium [^32P]pyrophosphate. Exchange was initiated by addition of purified recombinant A-domain proteins to a total volume of 0.1 ml. The protein concentrations were 0.2 μM for Module 4 and Module 5 A-domains while 2 μM for Module 7 and Module 8 A-domains. After incubation at 37° C. for 15 min, the reaction was stopped by addition of 0.5 ml of Terminaton Mix (100 mM tetrasodium pyrophosphate, 3.5% HClO4, and 1.6% [w/v] activated charcoal). The charcoal was pelleted by centrifugation, washed first with 40 mM pyrophosphate plus 1.4% perchloric acid and then with water, and was re-suspended in 0.5 ml of water. The charcoal/water suspension was added to a scintillation vial containing 5.0 ml of scintillation fluid, and the bound radioactivity was determined by liquid scintillation counting. The apparent Km values were determined with substrate concentrations ranging from 0.1 to 10 mM.
(§5) Since a purified recombinant A-domain of an NRPS module can selectively and efficiently activate the cognate amino acid substrate of the NRPS module in an ATP-PPi exchange assay (Konz, et al., 1999; Mootz & Marahiel, 1997), ATP-PPi exchange assays have been used to experimentally establish NRPS module specificities and novel NRPS codons. Recombinant A-domains of Modules 8, 5, 7, 4 and 2 of the BT NRPS were produced and purified as described in Methods and Materials. Almost completely soluble recombinant A-domain proteins were obtained. A-domain specificities were determined in ATP-PPi exchange and aa Km assays (see Methods and Materials), and the results are shown in FIG. 5. […]

[4] = target: A-domain of BT NRPS Module 4 (Bt4A) (Brevibacillus texasporus, UniProt Q2VQ15); test: ATP-PPi exchange assay, Module 4 A-domain; assay type: biochemical; details: for relative activation (highest activity = 100%): 0.5 mM amino acid
Experimental: as §1, §2, §3

[5] = test system: A-domain of BT NRPS Module 2 (Bt2A); test: ATP-PPi exchange assay, Module 2 A-domain; assay type: biochemical, Brevibacillus texasporus; details: 0.5 mM amino acid
Experimental: as §1, §4, §5

straight run broilers = test: Growth and feed conversion of 3-wk old broilers in batteries, pelleted starter feed (Studies 3-1 and 3-2); assay type: in vivo, chicken; details: BT1583 12 ppm, BMD 50 ppm, COB 90 ppm, alone or combined, pelleted feed
Source text: Eight (8) study repetitions per treatment were used, again with 4 birds per pen.

broiler chickens = test: 42-day broiler floor pen trial with natural colibacillosis challenge; assay type: in vivo, chicken; details: for Day 42 Feed/Gain / Day 42 Gain/Bird / Day 42 Mortality (%) / Day 42 Adjusted Feed/Gain: MON 99 ppm, BT1583 12 ppm, BMD 55 ppm; for Day 42 Feed/Gain / Day 42 Gain/Bird: alone or combined; for Day 42 Mortality (%): acute and chronic colibacillosis; for Day 42 Adjusted Feed/Gain: adjusted for weight of mortality
Experimental: A broiler floor pen trial to compare the performance of a new anti-microbial designated for this project as BT1583 alone and in combination with the widely used coccidiostat monensin (MON) to MON fed alone, MON in combination with the also widely used antimicrobial Bacitracin MD (BMD) and BMD alone.
The following levels of each treatment were evaluated:
The study design included 10 pens per treatment and 40 birds per pen housed on day of hatch. Two basal corn-soy based diets of decreasing protein (approximately 23 to 20%) and increasing metabolizable energy (approximately 1400 to 1455 kcal/lb) were used from Day 0 to 21 (starter feed) and Days 22 to 42 (grower feed), respectively. Treatment premixes were measured and blended into diets at required levels. Between days 0 and 21 mortality was less than 1% with all birds growing optimally and of high health across all groups.
Beginning on study day 22, the study director modulated house temperature and air flow to mimic industry conditions conducive to outbreaks of colibacillosis within naïve broiler flocks. This was done to stimulate a natural challenge for this study. Mortality climbed to a house average of approximately 10% by Day 42. A majority of these deaths occurred in groups not receiving BT1583 or MON. Lesions were consistent with those of colibacillosis (air sac, pneumonia, peri-hepatitis, peri-carditis and extreme morbidity). All mortality was documented (weight at death and post-mortem observations). All birds and feeds were weighed at 42 days. All remaining birds were euthanized on Day 42 by asphyxiation with the carcasses submitted for rendering.
The following variables were tested: Response Variables: Gain Per Bird, Feed Per Gain, Mortality (%), Adjusted Feed Per Gain. F test from One Way ANOVA with one blocking factor=location, at Day 42 using 0.05 level of significance.
All Response Variables: LSD T-test procedure for pair-wise comparisons with Type 1 error of means when ANOVA F ratio is significant, overall significance level of 0.05 used. Lines below means (see Table 30, below) indicate groups with insignificant differences in means.
Adjusted Feed/Gain: The total weight of mortality in each pen was added to the final live weight, that value reduced by subtracting the initial weight and then dividing that value into the Total feed consumed to calculate the Adjusted Feed/Gain.

A-domain of BT NRPS Module 8 (Bt8A), sequence (Q2VQ14 entry or part of it): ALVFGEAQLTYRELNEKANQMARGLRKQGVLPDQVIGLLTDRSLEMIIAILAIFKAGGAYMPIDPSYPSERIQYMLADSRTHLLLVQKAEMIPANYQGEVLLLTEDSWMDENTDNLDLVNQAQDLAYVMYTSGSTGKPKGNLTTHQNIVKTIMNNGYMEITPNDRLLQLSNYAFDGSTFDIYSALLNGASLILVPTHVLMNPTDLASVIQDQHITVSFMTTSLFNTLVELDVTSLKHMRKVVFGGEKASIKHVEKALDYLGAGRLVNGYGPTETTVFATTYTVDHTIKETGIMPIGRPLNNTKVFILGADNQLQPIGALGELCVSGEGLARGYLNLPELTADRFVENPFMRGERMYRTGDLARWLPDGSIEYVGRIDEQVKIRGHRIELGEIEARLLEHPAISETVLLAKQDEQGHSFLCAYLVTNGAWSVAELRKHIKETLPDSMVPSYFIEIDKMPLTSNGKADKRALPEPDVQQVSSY
A-domain of BT NRPS Module 5, sequence (Q2VQ15 entry or part of it): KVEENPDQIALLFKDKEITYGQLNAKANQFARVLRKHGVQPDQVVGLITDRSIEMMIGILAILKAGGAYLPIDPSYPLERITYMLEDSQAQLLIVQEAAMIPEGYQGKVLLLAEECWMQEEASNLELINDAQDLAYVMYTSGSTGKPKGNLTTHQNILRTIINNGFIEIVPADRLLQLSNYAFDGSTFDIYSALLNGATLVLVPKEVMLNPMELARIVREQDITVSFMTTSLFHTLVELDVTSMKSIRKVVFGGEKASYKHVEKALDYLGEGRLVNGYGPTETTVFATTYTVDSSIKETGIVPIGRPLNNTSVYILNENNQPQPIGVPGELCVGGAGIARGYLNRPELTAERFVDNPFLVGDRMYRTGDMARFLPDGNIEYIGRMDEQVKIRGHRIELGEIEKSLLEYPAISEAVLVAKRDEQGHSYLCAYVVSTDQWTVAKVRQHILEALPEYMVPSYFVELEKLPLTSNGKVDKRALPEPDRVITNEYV
A-domain of BT NRPS Module 4 (Bt4A), sequence (Q2VQ15 entry or part of it): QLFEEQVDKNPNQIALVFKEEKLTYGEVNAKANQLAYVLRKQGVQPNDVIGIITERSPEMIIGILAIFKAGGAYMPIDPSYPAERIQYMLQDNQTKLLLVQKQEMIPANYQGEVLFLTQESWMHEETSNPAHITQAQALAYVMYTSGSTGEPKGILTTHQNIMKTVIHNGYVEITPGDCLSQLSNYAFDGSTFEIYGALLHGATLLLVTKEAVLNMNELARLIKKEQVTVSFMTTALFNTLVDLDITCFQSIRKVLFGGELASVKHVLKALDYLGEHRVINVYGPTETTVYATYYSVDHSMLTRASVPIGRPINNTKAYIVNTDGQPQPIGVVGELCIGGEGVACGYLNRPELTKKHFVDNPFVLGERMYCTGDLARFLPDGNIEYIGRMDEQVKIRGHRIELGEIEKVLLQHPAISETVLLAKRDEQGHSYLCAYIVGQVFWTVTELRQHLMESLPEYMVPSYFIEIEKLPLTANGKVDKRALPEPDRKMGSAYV
A-domain of BT NRPS Module 7 (Bt7A), sequence (Q2VQ15 entry or part of it): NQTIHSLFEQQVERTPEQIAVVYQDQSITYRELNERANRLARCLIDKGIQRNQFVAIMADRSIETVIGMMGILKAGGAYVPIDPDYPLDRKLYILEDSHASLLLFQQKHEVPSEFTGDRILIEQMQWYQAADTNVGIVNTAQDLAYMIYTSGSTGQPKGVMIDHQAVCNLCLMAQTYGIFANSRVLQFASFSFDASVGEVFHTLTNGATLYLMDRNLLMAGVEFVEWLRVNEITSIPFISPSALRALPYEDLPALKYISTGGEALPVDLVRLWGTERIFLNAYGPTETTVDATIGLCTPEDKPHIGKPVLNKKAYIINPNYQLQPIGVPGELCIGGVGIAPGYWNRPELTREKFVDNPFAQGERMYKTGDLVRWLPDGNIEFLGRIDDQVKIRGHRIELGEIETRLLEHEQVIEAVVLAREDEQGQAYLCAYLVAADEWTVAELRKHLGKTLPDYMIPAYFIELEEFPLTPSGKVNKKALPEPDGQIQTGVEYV

## NCCCC[C@H](N)C(=O)O [L-Lys]
[1]
  activation: only amino acid that activated
[2]
  relative activation (highest activity = 100%): 10%

## CC(C)[C@H](N)C(=O)O [L-Val]
[3]
  relative activation (highest activity = 100%): 100%
  Km: 1110 µM
[2]
  relative activation (highest activity = 100%): 100%
[2]; read-out: apparent Km
  Km: 2750 µM
[4]
  relative activation (highest activity = 100%): 9%
[5]
  relative activation (highest activity = 100%): 67%

## CC[C@@]1([C@@H]2O[C@@H]([C@H]3O[C@@](O)(CO)[C@H](C)C[C@@H]3C)C[C@@H]2C)CC[C@H]([C@]2(C)CC[C@]3(C[C@H](O)[C@@H](C)[C@@H]([C@@H](C)[C@@H](OC)[C@H](C)C(=O)O)O3)O2)O1 [Monensin, monensin]
Straight run broilers
  20-day cumulative feed conversion rate, Mean: 1.3712
  21-day cumulative feed conversion rate, Estimated Marginal Mean: 1.371
Straight run broilers; listed as COB
  21-day cumulative weight gain, Mean: 792.8438 and 792.844
Broiler chickens
  Day 42 Feed/Gain: 1.854^b
  Day 42 Gain/Bird: 4.111^bcd lb
  Day 42 Mortality (%): 8.00^a %
  Day 42 Adjusted Feed/Gain: 1.761^b
Broiler chickens; alone or in combination
  mortality rate compared with non-supplemented controls: lower mortality rates

## N[C@@H](Cc1ccccc1)C(=O)O [L-Phe]
[5]
  relative activation (highest activity = 100%): 3.5%

## CC(C)C[C@H](N)C(=O)O [L-Leu]
[3]
  relative activation (highest activity = 100%): 17%
[4]
  relative activation (highest activity = 100%): 7%
[5]
  relative activation (highest activity = 100%): 98%

## Bacitracin MD [BMD, reference compound]
Straight run broilers
  20-day cumulative feed conversion rate, Mean: 1.3397
  21-day cumulative feed conversion rate, Estimated Marginal Mean: 1.340
  21-day cumulative weight gain, Mean: 832.9688 and 832.969
Broiler chickens
  Day 42 Feed/Gain: 2.147^c
  Day 42 Gain/Bird: 3.971^cd lb
  Day 42 Mortality (%): 18.25^bc %
  Day 42 Adjusted Feed/Gain: 1.838^bc

## CC[C@H](C)[C@H](N)C(=O)O [L-Ile]
[3]
  relative activation (highest activity = 100%): 23%
  Km: 2780 µM
[2]
  relative activation (highest activity = 100%): 4%
[4]
  relative activation (highest activity = 100%): 100%
[4]; read-out: apparent Km
  Km: 500 µM
[5]
  relative activation (highest activity = 100%): 19%

## CSCC[C@H](N)C(=O)O [L-Met]
[5]
  relative activation (highest activity = 100%): 100%

— US20090175981A1, “COMPOSITIONS, METHODS AND USES FOR A NOVEL FAMILY OF PEPTIDES” (priority 2004, published 2009)
